Assays:
[1] = system: class IIa HDACs; experiment: Global quantitative proteomics, change in protein abundance in Kelly cells; assay type: cell-based, human; settings: 5 hours, vs DMSO, moderated t-test
Description: (§1) Cells were washed once with phosphate-buffered saline (PBS), harvested with CellstripperTM (Corning®), washed two additional times with PBS and snap frozen in liquid nitrogen. […] Proteins were precipitated using methanol/chloroform in Donovan et al., Elife 7:e38430 (2018). The precipitated protein was resuspended in 4 M Urea, 50 mM HEPES pH 7.4, followed by dilution to 1 M urea with the addition of 200 mM EPPS, pH 8. Proteins were first digested with LysC (1:50: enzyme:protein) for 12 hours at room temperature. The LysC digestion was diluted to 0.5 M Urea with 200 mM EPPS pH 8 followed by digestion with trypsin (1:50: enzyme:protein) for 6 hours at 37° C. Tandem mass tag (TMT) reagents (Thermo Fisher Scientific) were dissolved in anhydrous acetonitrile (ACN) according to manufacturer's instructions. Anhydrous ACN was added to each peptide sample to a final concentration of 30% v/v, and labeling was induced with the addition of TMT reagent to each sample at a ratio of 1:4 peptide:TMT label. The 11-plex labeling reactions were performed for 1.5 hours at room temperature and the reaction quenched by the addition of hydroxylamine to a final concentration of 0.3% for 15 minutes at room temperature. The sample channels were combined at a 1:1 ratio, desalted using C18 solid phase extraction cartridges (Waters®) and analyzed by LC-MS for channel ratio comparison. Samples were then combined using the adjusted volumes determined in the channel ratio analysis and dried down in a speed vacuum. The combined sample was then resuspended in 1% formic acid, and acidified (pH 2-3) before being subjected to desalting with C18 SPE (Sep-Pak®-, Waters®). […] Proteome Discoverer 2.2 (Thermo Fisher Scientific) was used for .RAW file processing and controlling peptide and protein level false discovery rates, assembling proteins from peptides, and protein quantification from peptides. […] TMT reporter ion intensities were measured using a 0.003 Da window around the theoretical m/z for each reporter ion in the MS3 scan. […]

[2] = system: class IIa HDACs; experiment: Global quantitative proteomics, change in protein abundance in MM.1S cells; assay type: cell-based, human; settings: 1 μM, 5-hour treatment, vs DMSO, moderated t-test, FIG. 5
Description: as §1, with “Tandem mass tag (TMT) reagents (Thermo Fisher Scientific) were dissolved in anhydrous acetonitrile (ACN) according to manufacturer's instructions. Anhydrous ACN was added to each peptide sample to a final concentration of 30% v/v, and labeling was induced with the addition of TMT reagent to each sample at a ratio of 1:4 peptide:TMT label. The 11-plex labeling reactions were performed for 1.5 hours at room temperature and the reaction quenched by the addition of hydroxylamine to a final concentration of 0.3% for 15 minutes at room temperature.” left out, “vacuum.” for “vacuum. The combined sample was then resuspended in 1% formic acid, and acidified (pH 2-3) before being subjected to desalting with C18 SPE (Sep-Pak®-, Waters®).”

[3] = molecular target: T1, HDAC7 (Homo sapiens, UniProt Q8WUI4); experiment: Global quantitative proteomics, change in protein abundance in Kelly cells; assay type: cell-based; parameters: endogenous in cells; host or cells: Kelly cells; settings: 5-hour treatment, vs DMSO, FIG. 3
T1 sequence (Q8WUI4 1-952): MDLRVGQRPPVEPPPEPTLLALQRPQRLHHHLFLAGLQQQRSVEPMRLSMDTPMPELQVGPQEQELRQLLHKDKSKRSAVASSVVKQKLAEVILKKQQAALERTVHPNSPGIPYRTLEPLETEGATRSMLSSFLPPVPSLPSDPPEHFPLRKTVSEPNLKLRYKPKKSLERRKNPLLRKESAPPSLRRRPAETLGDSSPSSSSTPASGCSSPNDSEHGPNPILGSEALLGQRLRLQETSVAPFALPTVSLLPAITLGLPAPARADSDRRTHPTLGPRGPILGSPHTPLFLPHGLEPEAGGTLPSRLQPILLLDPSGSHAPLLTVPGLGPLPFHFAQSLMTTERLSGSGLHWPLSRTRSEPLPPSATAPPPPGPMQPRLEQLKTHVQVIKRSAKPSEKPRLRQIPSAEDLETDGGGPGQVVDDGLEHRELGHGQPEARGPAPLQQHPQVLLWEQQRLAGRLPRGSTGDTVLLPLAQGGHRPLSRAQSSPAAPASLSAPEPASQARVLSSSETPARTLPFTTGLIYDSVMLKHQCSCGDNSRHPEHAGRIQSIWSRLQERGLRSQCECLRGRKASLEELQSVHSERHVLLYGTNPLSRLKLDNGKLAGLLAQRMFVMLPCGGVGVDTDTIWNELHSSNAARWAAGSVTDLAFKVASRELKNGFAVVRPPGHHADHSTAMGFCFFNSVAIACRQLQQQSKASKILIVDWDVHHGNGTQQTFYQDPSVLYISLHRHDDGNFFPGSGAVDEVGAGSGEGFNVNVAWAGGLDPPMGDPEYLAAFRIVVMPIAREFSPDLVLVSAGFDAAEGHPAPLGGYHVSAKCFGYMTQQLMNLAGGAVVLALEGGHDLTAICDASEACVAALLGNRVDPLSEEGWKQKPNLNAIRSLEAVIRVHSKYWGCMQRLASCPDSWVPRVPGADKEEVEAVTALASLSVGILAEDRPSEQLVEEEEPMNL
Description: (§2) Cells were washed once with phosphate-buffered saline (PBS), harvested with CellstripperTM (Corning®), washed two additional times with PBS and snap frozen in liquid nitrogen. […] Proteins were precipitated using methanol/chloroform in Donovan et al., Elife 7:e38430 (2018). The precipitated protein was resuspended in 4 M Urea, 50 mM HEPES pH 7.4, followed by dilution to 1 M urea with the addition of 200 mM EPPS, pH 8. Proteins were first digested with LysC (1:50: enzyme:protein) for 12 hours at room temperature. The LysC digestion was diluted to 0.5 M Urea with 200 mM EPPS pH 8 followed by digestion with trypsin (1:50: enzyme:protein) for 6 hours at 37° C. Tandem mass tag (TMT) reagents (Thermo Fisher Scientific) were dissolved in anhydrous acetonitrile (ACN) according to manufacturer's instructions. Anhydrous ACN was added to each peptide sample to a final concentration of 30% v/v, and labeling was induced with the addition of TMT reagent to each sample at a ratio of 1:4 peptide:TMT label. The 11-plex labeling reactions were performed for 1.5 hours at room temperature and the reaction quenched by the addition of hydroxylamine to a final concentration of 0.3% for 15 minutes at room temperature. The sample channels were combined at a 1:1 ratio, desalted using C18 solid phase extraction cartridges (Waters®) and analyzed by LC-MS for channel ratio comparison. Samples were then combined using the adjusted volumes determined in the channel ratio analysis and dried down in a speed vacuum. The combined sample was then resuspended in 1% formic acid, and acidified (pH 2-3) before being subjected to desalting with C18 SPE (Sep-Pak®-, Waters®). […] The 96 resulting fractions were then pooled in a non-contiguous manner into 24 fractions and these fractions were used for subsequent mass spectrometry analysis. Data were collected using an Orbitrap FusionTM LumosTM mass spectrometer (Thermo Fisher Scientific, San Jose, CA, USA) coupled with a […] pump (Thermo Fisher Scientific). Peptides were separated on an EasySprayTM ES803.rev2 75 μm inner diameter microcapillary column (ThermoFisher Scientific). Peptides were separated using a 190 min gradient of 6-27% acetonitrile in 1.0% formic acid with a flow rate of 300 nL/min. Each analysis used an MS3-based TMT method as described in McAlister et al., Anal. Chem. 86(14):7150-7158 (2014). The data were acquired using a mass range of m/z 340-1350, resolution 120,000, automatic gain control (AGC) target 1×10^6, maximum injection time 100 ms, dynamic exclusion of 120 seconds for the peptide measurements in the Orbitrap FusionTM LumosTM mass spectrometer. Data dependent MS2 spectra were acquired in the ion trap with a normalized collision energy (NCE) set at 55%, AGC target set to 1.5×10^5 and a maximum injection time of 150 ms. MS3 scans were acquired in the Orbitrap FusionTM LumosTM mass spectrometer with a higher energy collision dissociation (HCD) set to 55%, AGC target set to 1.5×10^5, maximum injection time of 150 ms, resolution at 50,000 and with a maximum synchronous precursor selection (SPS) precursors set to 10. Proteome Discoverer 2.2 (Thermo Fisher Scientific) was used for .RAW file processing and controlling peptide and protein level false discovery rates, assembling proteins from peptides, and protein quantification from peptides. MS/MS spectra were searched against a Swissprot human database (December 2016) with both the forward and reverse sequences. […] TMT reporter ion intensities were measured using a 0.003 Da window around the theoretical m/z for each reporter ion in the MS3 scan. […] Reporter ion intensities were normalized and scaled using in-house scripts in the R framework. Statistical analysis was carried out using the limma package within the R framework as described in Ritchie et al., Nucleic Acids Res. 43(7):e47 (2015).

[4] = molecular target: HDAC5 (Homo sapiens, UniProt Q9UQL6); experiment: as above; assay type: cell-based; parameters: endogenous in cells; host or cells: Kelly cells; settings: 5 μM, 5-hour treatment, vs DMSO, FIG. 3
Sequence of HDAC5 (Q9UQL6 whole entry): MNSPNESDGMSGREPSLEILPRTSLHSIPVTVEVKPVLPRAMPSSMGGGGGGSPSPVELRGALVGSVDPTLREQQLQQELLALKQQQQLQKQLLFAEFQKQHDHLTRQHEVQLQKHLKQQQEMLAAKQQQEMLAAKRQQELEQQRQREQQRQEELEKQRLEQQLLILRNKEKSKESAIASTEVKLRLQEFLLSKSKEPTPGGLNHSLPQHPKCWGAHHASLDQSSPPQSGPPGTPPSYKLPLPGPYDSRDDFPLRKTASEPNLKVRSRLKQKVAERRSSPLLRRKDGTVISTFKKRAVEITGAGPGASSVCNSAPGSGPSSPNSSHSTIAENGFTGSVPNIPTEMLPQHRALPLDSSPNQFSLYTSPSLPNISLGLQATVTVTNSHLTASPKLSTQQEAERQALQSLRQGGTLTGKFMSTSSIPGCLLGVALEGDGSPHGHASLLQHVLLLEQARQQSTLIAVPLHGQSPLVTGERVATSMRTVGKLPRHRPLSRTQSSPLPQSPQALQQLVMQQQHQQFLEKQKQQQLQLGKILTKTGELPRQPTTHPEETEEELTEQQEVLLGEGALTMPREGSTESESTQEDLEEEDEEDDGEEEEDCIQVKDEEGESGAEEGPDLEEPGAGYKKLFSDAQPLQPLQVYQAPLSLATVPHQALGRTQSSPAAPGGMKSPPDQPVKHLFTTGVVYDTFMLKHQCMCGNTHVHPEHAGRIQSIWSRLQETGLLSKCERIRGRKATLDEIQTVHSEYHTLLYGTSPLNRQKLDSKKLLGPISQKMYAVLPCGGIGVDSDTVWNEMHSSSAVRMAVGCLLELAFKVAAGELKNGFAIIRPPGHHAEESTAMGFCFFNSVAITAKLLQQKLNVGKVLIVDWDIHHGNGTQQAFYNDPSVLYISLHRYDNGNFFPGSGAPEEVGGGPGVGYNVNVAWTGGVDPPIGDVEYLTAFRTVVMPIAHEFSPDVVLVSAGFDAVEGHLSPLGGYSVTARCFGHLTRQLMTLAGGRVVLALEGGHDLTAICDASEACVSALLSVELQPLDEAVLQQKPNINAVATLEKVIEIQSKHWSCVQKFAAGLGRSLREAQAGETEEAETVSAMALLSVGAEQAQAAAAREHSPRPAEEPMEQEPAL
Description: as §2

Row | SMILES | class IIa HDAC levels (relative protein abundance) ([1]; 1 μM, FIG. 4B-4C) | class IIa HDAC levels (relative protein abundance) [2] | protein expression level of HDAC7 ([3]; 1 μM) | class IIa HDAC levels (relative protein abundance) ([1]; 5 μM, FIG. 4A) | protein expression level of HDAC5 [4] | protein expression level of HDAC7 ([3]; 5 μM)
1 | CCN(CCOCCOCCC(=O)N[C@H](C(=O)N1C[C@H](O)C[C@H]1C(=O)N[C@@H](C)c1ccc(-c2scnc2C)cc1)C(C)(C)C)C[C@@H](C)NC(=O)c1ccc(-c2noc(C(F)(F)F)n2)cc1 [Compound 17] | significant reduction | significant reduction | selective reduction in protein expression level |  |  | 
2 | O=C1CCC(N2C(=O)c3cccc(NCCN4CCC(CNC(=O)c5cccc(-c6noc(C(F)(F)F)n6)c5)(c5nc(-c6ccccc6)cs5)CC4)c3C2=O)C(=O)N1 (stereo not drawn) [Compound 3, N-((1-(2-((2-(2,6-dioxopiperidin-3-yl)-1,3-dioxoisoindolin-4-yl)amino)ethyl)-4-(4-phenylthiazol-2-yl)piperidin-4-yl)methyl)-3-(5-(trifluoromethyl)-1,2,4-oxadiazol-3-yl)benzamide] |  |  |  | significant reduction | reduction in protein expression level | reduction in protein expression level

— patent US20240246956A1, “CLASS IIA HISTONE DEACETYLASE (HDAC) DEGRADER LIGANDS AND METHODS OF USE THEREOF” (DANA-FARBER CANCER INSTITUTE, INC., priority 2021, published 2024)
